# Patent US20050054559A1, “Compounds for sustained release of orally delivered drugs” (priority 2000, published 2005)
# pIC50: −log10 of the molar value.
# Legend:
# LBAT = target: T1, LBAT (Homo sapiens, UniProt Q14973); assay: Inhibition of radiolabeled taurocholate uptake in LBAT-transfected CHO cells; format: cell-based; conditions: radiolabeled competition assay in transporter-expressing CHO cells
# T1 construct: expressed in transfected cells; host or cells: CHO cells
# Description: CHO cells transfected with either the IBAT or LBAT transporter were seeded into 96-well microtiter plates at 100,000 cells/well in 100 μL DMEM containing 10% serum, glutamine and Penstrep. After overnight incubation the media was removed and test compound (25 μL) added at 2× the final desired concentration. Tritiated taurocholate (50,000 CPM/well) was diluted with cold substrate to a final concentration of 5 μM and 25 μL/well of this mixture was added to the plate. After incubating for 1 h at room temperature the solution was removed and the plate washed 4× with PBS at 4° C. 200 μL/well of scintillant is added and the plate then read in a Wallac microbeta counter. The inhibition data is processed by standard methods to calculate an inhibition constant Ki for the test compound.
# in vivo = conditions: male, Sprague-Dawley, rat, po, 85.25 mg/kg
# Description: (§1) The pharmacokinetics of the prodrug (4) were examined in rats. Three groups of four male Sprague-Dawley rats (approx 200 g) with jugular cannulae each received one of the following treatments: A) a single bolus intravenous injection of gabapentin (25 mg/kg, as a solution in water); B) a single oral dose of gabapentin (25 mg/kg, as a solution in water) administered by oral gavage; C) a single oral dose of (4) (85.25 mg/kg, as a solution in water) administered by oral gavage. Animals were fasted overnight prior to dosing and until 4 hours post-dosing. Serial blood samples were obtained over 24 hours following dosing and blood was processed for plasma by centrifugation. Plasma samples were stored at −80° C. until analyzed. Concentrations of (4) or gabapentin in plasma samples were determined by LC/MS/MS as described in Example 35. Plasma (50 μL) was precipitated by addition of […] of methanol and supernatent was injected directly onto the LC/MS/MS system. The method was linear for gabapentin over the concentration range 0.001 to 20 ng/mL and for (4) over the concentration range 0.01 to 10 ng/mL.
# as §1, with “prodrug Cholyl-Phe-Gabapentin (7g)” for “prodrug (4)”, “of (7g) (103.5” for “of (4) (85.25”, “of (7g)” for “of (4)”, “or (2)” for “or gabapentin”, “described above.” for “described in Example 35.”, “system.” for “system. The method was linear for gabapentin over the concentration range 0.001 to 20 ng/mL and for (4) over the concentration range 0.01 to 10 ng/mL.”
# Cholylglycine Hydrolase = Cholylglycine Hydrolase (Clostridium perfringens, UniProt P54965); conditions: compared with plasma, liver or intestine
# Sequence of Cholylglycine Hydrolase (P54965 whole entry, looked up): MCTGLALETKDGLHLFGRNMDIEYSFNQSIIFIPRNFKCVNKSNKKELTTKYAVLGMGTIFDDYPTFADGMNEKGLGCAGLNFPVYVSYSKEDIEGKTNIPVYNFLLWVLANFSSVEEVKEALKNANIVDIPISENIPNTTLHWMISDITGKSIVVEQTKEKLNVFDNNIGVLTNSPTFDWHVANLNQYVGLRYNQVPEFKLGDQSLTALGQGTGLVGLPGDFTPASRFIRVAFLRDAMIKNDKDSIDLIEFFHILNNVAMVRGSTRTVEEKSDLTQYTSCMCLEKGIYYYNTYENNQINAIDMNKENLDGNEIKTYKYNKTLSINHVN
# T1 sequence (Q14973 whole entry): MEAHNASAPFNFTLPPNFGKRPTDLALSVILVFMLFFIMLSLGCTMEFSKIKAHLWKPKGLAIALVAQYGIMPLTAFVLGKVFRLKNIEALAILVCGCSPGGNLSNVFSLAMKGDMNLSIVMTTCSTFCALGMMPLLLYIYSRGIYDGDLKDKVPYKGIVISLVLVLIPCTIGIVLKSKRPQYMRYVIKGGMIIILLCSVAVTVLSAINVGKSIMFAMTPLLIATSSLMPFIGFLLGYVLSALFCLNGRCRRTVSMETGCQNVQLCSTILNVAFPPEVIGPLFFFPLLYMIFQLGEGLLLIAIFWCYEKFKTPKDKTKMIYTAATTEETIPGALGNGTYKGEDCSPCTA
smiles,measurement,setting,value
CC(CCC(=O)NCC1(CC(=O)O)CCCCC1)C1CCC2C3C(O)CC4CC(O)CCC4(C)C3CC(O)C12C (centres unmarked) [Compound (4)],pIC50,LBAT,5.10
same,concentrations of intact (4) in plasma sustained out to,in vivo,24 h
same,half-life,in vivo,> 12 h
same,time of maximum concentration of intact (4) in plasma,in vivo,~8 h
same,release of gabapentin catalyzed by cholylglycine hydrolase (in words),Cholylglycine Hydrolase,Substantially faster release
